Tests used:
Assay type in all cases: cell-based
IGROV-1 = assay: Cytotoxicity against human IGROV1 cells assessed as effect on cell growth at 10 uM incubated for 48 hrs by sulforhodamine B assay; conditions: igrov-1, 48 h
SN12C = assay: Cytotoxicity against human SN12C cells assessed as effect on cell growth at 10 uM incubated for 48 hrs by sulforhodamine B assay
SNB-19 = assay: Cytotoxicity against human SNB19 cells assessed as effect on cell growth at 10 uM incubated for 48 hrs by sulforhodamine B assay; conditions: snb-19, 48 h
HCT-15 = assay: Cytotoxicity against human HCT15 cells assessed as effect on cell growth at 10 uM incubated for 48 hrs by sulforhodamine B assay; conditions: hct-15, 48 h
NCI/ADR-RES = assay: Cytotoxicity against human NCI/ADR-RES cells assessed as effect on cell growth at 10 uM incubated for 48 hrs by sulforhodamine B assay
UO-31 = assay: Cytotoxicity against human UO31 cells assessed as effect on cell growth at 10 uM incubated for 48 hrs by sulforhodamine B assay; conditions: uo-31, 48 h
RPMI-8226 = assay: Cytotoxicity against human RPMI8226 cells assessed as effect on cell growth at 10 uM incubated for 48 hrs by sulforhodamine B assay; conditions: rpmi-8226, 48 h
UACC-257 = assay: Cytotoxicity against human UACC257 cells assessed as effect on cell growth at 10 uM incubated for 48 hrs by sulforhodamine B assay; conditions: uacc-257, 48 h
PC-3 = assay: Cytotoxicity against human PC3 cells assessed as effect on cell growth at 10 uM incubated for 48 hrs by sulforhodamine B assay; conditions: pc-3, 48 h
NCI-H23 = assay: Cytotoxicity against human NCI-H23 cells assessed as effect on cell growth at 10 uM incubated for 48 hrs by sulforhodamine B assay; conditions: nci-h23, 48 h
KM12 = assay: Cytotoxicity against human KM12 cells assessed as effect on cell growth at 10 uM incubated for 48 hrs by sulforhodamine B assay; conditions: km12, 48 h
CAKI-1 = assay: Growth inhibition of human Caki1 cells assessed as growth percentage at 10 uM incubated for 48 hrs by sulforhodamine B assay; conditions: caki-1, 48 h
HT-29 = assay: Cytotoxicity against human HT-29 cells assessed as effect on cell growth at 10 uM incubated for 48 hrs by sulforhodamine B assay; conditions: ht-29, 48 h
MDA-MB-468 = assay: Cytotoxicity against human MDA-MB-468 cells assessed as effect on cell growth at 10 uM incubated for 48 hrs by sulforhodamine B assay; conditions: mda-mb-468, 48 h
SF-295 = assay: Cytotoxicity against human SF295 cells assessed as effect on cell growth at 10 uM incubated for 48 hrs by sulforhodamine B assay; conditions: sf-295, 48 h
T47D = assay: Cytotoxicity against human T47D cells assessed as effect on cell growth at 10 uM incubated for 48 hrs by sulforhodamine B assay
SF-268 = assay: Cytotoxicity against human SF268 cells assessed as effect on cell growth at 10 uM incubated for 48 hrs by sulforhodamine B assay; conditions: sf-268, 48 h
BT-549 = assay: Cytotoxicity against human BT549 cells assessed as effect on cell growth at 10 uM incubated for 48 hrs by sulforhodamine B assay; conditions: bt-549, 48 h
U-251 = assay: Cytotoxicity against human U251 cells assessed as effect on cell growth at 10 uM incubated for 48 hrs by sulforhodamine B assay; conditions: u-251, 48 h
LOX IMVI = assay: Cytotoxicity against human LOXIMVI cells assessed as effect on cell growth at 10 uM incubated for 48 hrs by sulforhodamine B assay

Measured: Activity

O=C(NCCc1ccc(Cl)cc1Cl)[C@@H]1CCC(=O)N1c1ccccc1
Non-Toxic: all assays above

O=C(NCc1ccc(Cl)cc1Cl)c1ccccn1
Non-Toxic: all assays above

O=C(NCc1ccccc1Cl)[C@@H]1CCC(=O)N1Cc1ccc(Cl)cc1
Non-Toxic: all assays above

CCCCCCN1C(=O)[C@@H]2C/C(=C\N(C)C)C(=O)N2C1N(C)C (stereo not given in full)
Non-Toxic: all assays above

O=C(NCc1ccc(Cl)cc1Cl)[C@@H]1CCC(=O)N1c1ccccc1
Non-Toxic: all assays above

O=C(NCc1ccc(Cl)cc1Cl)[C@@H]1CCC(=O)N1C(c1ccc(Cl)cc1)c1ccc(Cl)cc1
Non-Toxic: all assays above

Source: ChEMBL document CHEMBL4627246, “Pyroglutamide-Based P2X7 Receptor Antagonists Targeting Inflammatory Bowel Disease” (J Med Chem, 2020)
